# In patent US9610245B2, “Ophthalmic composition” (Drug Delivery Solutions Limited, priority 2011, dated 2017):
# Assay: Ex vivo permeation of cyclosporine through cornea, Ussing diffusion cells
# Type: in vitro ADME, rabbit
# Conditions: excipient changed in or added to the Example 1 formulation
# Method: In order to determine the permeation of cyclosporine (CsA) formulations into and through the cornea, ex vivo studies were conducted. In brief, the corneas from rabbits were taken and mounted onto Ussing diffusion cells incubated at 37° C. and perfused with carbogen (95/5 oxygen/[…]). Approximately 3 ml sample was placed in the donor side of the chamber, 3 ml Ringers solution (6.5 g NaCl, 0.42 g KCl, 0.25 g CaCl2 and […] of Sodium bicarbonate per litre; isotonic solution pH 7.2) was placed in the receptor side of the chamber.
# Permeation across the cornea was determined by collecting 200 μl receptor phase at the appropriate time points. At time zero and at 8 hours (termination of the experiment) 100 μl of sample from the donor phase was taken for analysis. Corneas were collected and split into the stomal and epithelial parts. The cyclosporine in the cornea sections were analysed after extraction into 50/50 methanol/water. Levels of CsA in the receptor chamber, the cornea and in the donor chamber were determined by HPLC analysis. Formulations used were based on Example 1. The table below summarises the changes made to this formulation.
substance,measurement,value
benzalkonium chloride,effect of excipient on permeation of CsA into and through the cornea,no significant effect
